From ChEMBL document CHEMBL5678811 (Invest New Drugs, 2014) come the findings set out here.

Assay [1] concerns Calu-6. Kind of assay: Antitumor activity against human Calu-6 cells xenografted in CD1 nu/nu mouse assessed as tumor growth inhibition at 150 mg/kg, […] q3d administered via gavage for 4 days measured twice per week during compound dosing. It counts as functional, organism-based. The conditions noted are these: time 4.0 day.
In assay [2] the test system is Calu-6. Kind of assay: Antitumor activity against human Calu-6 cells xenografted in CD1 nu/nu mouse assessed as tumor growth inhibition at 60 mg/kg, […] q3d administered via gavage for 7 days measured twice per week during compound dosing. It counts as functional, organism-based. The conditions noted are these: time 7.0 day. Background: A xenograft is tissue or cells of one species grown in another, often human tumour cells in immunodeficient mice.

Each structure is given as a SMILES string. The source made the active and inactive calls. The calls are words filed in the database; no cut-off is given here.

In the case of `Nc1ccn([C@@H]2O[C@H](CO)[C@@H](O)C2(F)F)c(=O)n1`, the TGI result in assay [1] and in assay [2] was “Active” each time.
